Melting point data for 30 compounds are collected here from patent US9447100B2, “Substituted pyrazolo[1,5-A] pyrimidines as calcium receptor modulating agents” (Takeda Pharmaceutical Company Limited, priority 2002, dated 2016).

Structures can show the parent of a compound that is named as a salt.

With `CCC(CC)(NC(=O)c1c(C)nn2c1N[C@@H](c1ccccc1)CC2(C)C)c1ccc(CO)cc1` (as salt: HCl) [Example 1075, (5R)-N-(1-ethyl-1-(4-(hydroxymethyl)phenyl)propyl)-2,7,7-trimethyl-5-phenyl-4,5,6,7-tetrahydropyrazolo[1,5-a]pyrimidine-3-carboxamide], the melting point was 168 to 169 °C.

Take `CC1(C)CC(c2ccccc2)Nc2c(C(=O)NC(C3CCCCC3)C3CCCCC3)cnn21` (stereo not drawn) [Example 433, N-(dicyclohexylmethyl)-7,7-dimethyl-5-phenyl-4,5,6,7-tetrahydropyrazolo[1,5-a]pyrimidine-3-carboxamide]: the melting point is 187 to 188 °C.

Turning to `CCC(NC(=O)c1cnn2c1NC(c1ccccc1)CC2(C)C)c1ccccc1Br` (stereo not drawn) [Example 416, N-(1-(2-bromophenyl)propyl)-7,7-dimethyl-5-phenyl-4,5,6,7-tetrahydropyrazolo[1,5-a]pyrimidine-3-carboxamide], the melting point lay in the range of 200 to 201 °C.

The compound `O=C(NCC(=O)c1cccc2ccccc12)c1cnn2c1N[C@H](c1ccccc1)C[C@@H]2C(F)(F)F` (stereo in doubt) [Example 286, N-(2-(1-naphthyl)-2-oxoethyl)-5-phenyl-7-(trifluoromethyl)-4,5,6,7-tetrahydropyrazolo[1,5-a]pyrimidine-3-carboxamide] had a melting point of 141 to 142 °C.

`CCC(CC)(NC(=O)c1cnn2c1N[C@@H](c1ccccc1)CC2(C)C)c1ccc(SC)cc1` [Example 1067, (5R)-N-(1-ethyl-1-(4-(methylthio)phenyl)propyl)-7,7-dimethyl-5-phenyl-4,5,6,7-tetrahydropyrazolo[1,5-a]pyrimidine-3-carboxamide]: the melting point fell in the range of 151 to 152 °C.

The compound `CC1(C)C[C@@H](c2ccccc2)Nc2c(C(=O)NC34CC5CC(CC(C5)C3)C4)cnn21` [Example 1029, (5S)-N-1-adamantyl-7,7-dimethyl-5-phenyl-4,5,6,7-tetrahydropyrazolo[1,5-a]pyrimidine-3-carboxamide] registered a melting point of 226 to 227 °C.

`CCC(C#N)NC(=O)c1cnn2c1N[C@H](c1ccccc1)C[C@@H]2C(F)(F)F` (stereo in doubt) [Example 283, N-(1-cyanopropyl)-5-phenyl-7-(trifluoromethyl)-4,5,6,7-tetrahydropyrazolo[1,5-a]pyrimidine-3-carboxamide] yielded a melting point of 180 to 181 °C.

In the case of `CCC(CC)(NC(=O)c1cnn2c1NC(c1ccccc1)CC2C(F)(F)F)c1ccc(Br)cc1` (stereo not drawn) [Example 397, N-(1-(4-bromophenyl)-1-ethylpropyl)-5-phenyl-7-(trifluoromethyl)-4,5,6,7-tetrahydropyrazolo[1,5-a]pyrimidine-3-carboxamide], the melting point was 180 to 181 °C.

As for `CCC(CC)(NC(=O)c1c(C)nn2c1NC(c1ccccc1OC)CC2(C)C)c1ccc(C)cc1` (stereo not drawn) (as salt: HCl) [Example 965, N-(1-ethyl-1-(4-methylphenyl)propyl)-5-(2-methoxyphenyl)-2,7,7-trimethyl-4,5,6,7-tetrahydropyrazolo[1,5-a]pyrimidine-3-carboxamide], the melting point fell in the range of 162 to 163 °C.

`CCC(CC)(NC(=O)c1c(C)nn2c1NC(c1ccc(F)cc1)CC2(C)C)c1ccc(C)cc1` (stereo not drawn) (as salt: HCl) [Example 971, N-(1-ethyl-1-(4-methylphenyl)propyl)-5-(4-fluorophenyl)-2,7,7-trimethyl-4,5,6,7-tetrahydropyrazolo[1,5-a]pyrimidine-3-carboxamide] displayed a melting point of 166 to 169 °C.

In turn, `COc1ccccc1C1CC(C(F)(F)F)n2ncc(C(=O)O)c2N1` (stereo not drawn) [Example 30, 5-(2-methoxyphenyl)-7-(trifluoromethyl)-4,5,6,7-tetrahydropyrazolo[1,5-a]pyrimidine-3-carboxylic acid] came in with a melting point of 189 to 190 °C.

`CCC1(NC(=O)c2cnn3c2NC(c2ccccc2)CC3(C)C)CCCC1` (stereo not drawn) (as salt: HCl) [Example 588, N-(1-ethylcyclopentyl)-7,7-dimethyl-5-phenyl-4,5,6,7-tetrahydropyrazolo[1,5-a]pyrimidine-3-carboxamide] had a melting point of 140 to 142 °C.

Compound `O=C(CNC(=O)c1cnn2c1N[C@H](c1ccccc1)C[C@@H]2C(F)(F)F)c1ccccc1Cl` (stereo in doubt) [Example 289, N-(2-(2-chlorophenyl)-2-oxoethyl)-5-phenyl-7-(trifluoromethyl)-4,5,6,7-tetrahydropyrazolo[1,5-a]pyrimidine-3-carboxamide] showed a melting point of 154 to 155 °C.

Turning to `CCC(CC)(NC(=O)c1c(C)nn2c1N[C@@H](c1ccccc1)CC2(C)C)c1ccc(N(C)C)cc1` (as salt: HCl) [Example 1071, (5R)-N-(1-(4-(dimethylamino)phenyl)-1-ethylpropyl)-2,7,7-trimethyl-5-phenyl-4,5,6,7-tetrahydropyrazolo[1,5-a]pyrimidine-3-carboxamide], the melting point was 141 to 142 °C.

Take `CC1(C)CC(c2ccccc2)Nc2c(C(=O)NC(c3ccc(C(F)(F)F)cc3)(C3CCCCC3)C3CCCCC3)cnn21` (stereo not drawn) [Example 412, N-(dicyclohexyl(4-(trifluoromethyl)phenyl)methyl)-7,7-dimethyl-5-phenyl-4,5,6,7-tetrahydropyrazolo[1,5-a]pyrimidine-3-carboxamide]: the melting point is 146 to 147 °C.

`CCC(CC)(NC(=O)c1cnn2c1NC(c1ccccc1)CC2(C)C)c1ccc(C(=O)O)cc1` (stereo not drawn) [Example 734, 4-(1-(((7,7-dimethyl-5-phenyl-4,5,6,7-tetrahydropyrazolo[1,5-a]pyrimidin-3-yl)carbonyl)amino)-1-ethylpropyl)benzoic acid]: the melting point was in the range of 257 to 258 °C.

For `CCC(CC)(NC(=O)c1c(OCCO)nn2c1NC(c1ccccc1)CC2(C)C)c1ccc(C)cc1` (stereo not drawn) [Example 975, N-(1-ethyl-1-(4-methylphenyl)propyl)-2-(2-hydroxyethoxy)-7,7-dimethyl-5-phenyl-4,5,6,7-tetrahydropyrazolo[1,5-a]pyrimidine-3-carboxamide], the melting point lay within 115 to 117 °C.

`CC1(C)CC(c2ccccc2)Nc2c(C(=O)NC34CC5CC(CC(C5)C3)C4)cnn21` (stereo not drawn) [Example 374, N-(1-adamantyl)-7,7-dimethyl-5-phenyl-4,5,6,7-tetrahydropyrazolo[1,5-a]pyrimidine-3-carboxamide] yielded a melting point of 235 to 236 °C.

Compound `CCC(CC)(NC(=O)c1c(C)nn2c1N[C@@H](c1ccccc1)CC2(C)C)c1ccc(Cl)cc1` [Example 1042, (5R)-N-(1-(4-chlorophenyl)-1-ethylpropyl)-2,7,7-trimethyl-5-phenyl-4,5,6,7-tetrahydropyrazolo[1,5-a]pyrimidine-3-carboxamide] gave a melting point of 128 to 129 °C.

For the compound `Cc1nn2c(c1C(=O)OC1C(C)(C)[C@H]3CC[C@]1(C)C3)NC(c1ccccc1)CC2(C)C` (stereo partly drawn) (as salt: HCl) [Example 1141, (1R,4S)-1,3,3-trimethylbicyclo[2.2.1]hept-2-yl 2,7,7-trimethyl-5-phenyl-4,5,6,7-tetrahydropyrazolo[1,5-a]pyrimidine-3-carboxylate], the melting point lay within 149 to 150 °C.

The compound `CCC1(NC(=O)c2cnn3c2NC(c2ccccc2)CC3(C)C)CCC(C)CC1` (stereo not drawn) [Example 612, N-(1-ethyl-4-methylcyclohexyl)-7,7-dimethyl-5-phenyl-4,5,6,7-tetrahydropyrazolo[1,5-a]pyrimidine-3-carboxamide] yielded a melting point of 160 to 161 °C.

`CCC(CC)(NC(=O)c1cnn2c1NC(c1ccccc1)CC2(C)C)C1CCCCC1` (stereo not drawn) [Example 432, N-(1-cyclohexyl-1-ethylpropyl)-7,7-dimethyl-5-phenyl-4,5,6,7-tetrahydropyrazolo[1,5-a]pyrimidine-3-carboxamide] came in with a melting point of 130 to 131 °C.

Compound `CCC1(CC)C[C@H](O)CN1C(=O)c1cnn2c1N[C@@H](c1ccccc1)CC2(C)C` (as salt: HCl) [Example 1118, (3S)-1-(((5R)-7,7-dimethyl-5-phenyl-4,5,6,7-tetrahydropyrazolo[1,5-a]pyrimidin-3-yl)carbonyl)-5,5-diethyl-3-pyrrolidinol] had a melting point of 247 to 249 °C.

As to `CCC(CC)(NC(=O)c1c(C)nn2c1NC(c1cccs1)CC2(C)C)c1ccccc1` (stereo not drawn) (as salt: HCl) [Example 958, N-(1-ethyl-1-phenylpropyl)-2,7,7-trimethyl-5-(2-thienyl)-4,5,6,7-tetrahydropyrazolo[1,5-a]pyrimidine-3-carboxamide], the melting point lay in the range of 171 to 172 °C.

`O=C(O)c1cnn2c1NC(c1ccc3ccccc3c1)CC2C(F)(F)F` (stereo not drawn) [Example 22, 5-(2-naphthyl)-7-(trifluoromethyl)-4,5,6,7-tetrahydropyrazolo[1,5-a]pyrimidine-3-carboxylic acid] came in with a melting point of 143 to 145 °C.

On to `CC1(NC(=O)c2cnn3c2NC(c2ccccc2)CC3(C)C)CCCCC1` (stereo not drawn) [Example 586, 7,7-dimethyl-N-(1-methylcyclohexyl)-5-phenyl-4,5,6,7-tetrahydropyrazolo[1,5-a]pyrimidine-3-carboxamide], for which the melting point is 170 to 171 °C.

For `CCC(CC)(CCOC)NC(=O)c1cnn2c1NC(c1ccccc1)CC2(C)C` (stereo not drawn) [Example 664, N-(1,1-diethyl-3-methoxypropyl)-7,7-dimethyl-5-phenyl-4,5,6,7-tetrahydropyrazolo[1,5-a]pyrimidine-3-carboxamide], the melting point lay in the range of 129 to 130 °C.

For `CCC(CC)(NC(=O)c1c(C)nn2c1NC(c1ccccc1F)CC2(C)C)c1ccc(N(C)C)cc1` (stereo not drawn) (as salt: HCl) [Example 969, N-(1-(4-(dimethylamino)phenyl)-1-ethylpropyl)-5-(2-fluorophenyl)-2,7,7-trimethyl-4,5,6,7-tetrahydropyrazolo[1,5-a]pyrimidine-3-carboxamide], the melting point was in the range of 152 to 153 °C.

Take `CCC(CC)(NC(=O)c1cnn2c1N(Cc1ccccc1)C(c1ccccc1)CC2(C)C)c1ccc(C)cc1` (stereo not drawn) [Example 765, 4-benzyl-N-(1-ethyl-1-(4-methylphenyl)propyl)-7,7-dimethyl-5-phenyl-4,5,6,7-tetrahydropyrazolo[1,5-a]pyrimidine-3-carboxamide]: the melting point is 142 to 143 °C.

Consider `C#CC1(NC(=O)c2cnn3c2NC(c2ccccc2)CC3(C)C)CCCCC1` (stereo not drawn) [Example 587, N-(1-ethynylcyclohexyl)-7,7-dimethyl-5-phenyl-4,5,6,7-tetrahydropyrazolo[1,5-a]pyrimidine-3-carboxamide], for which the melting point was in the range of 201 to 202 °C.
